Measured values from DBAASP.
Converted amounts (≈) assume the structure as drawn.

Assays:
Assay in all cases: ≥ marks a high value that may be exact or a test limit, other limits are often not marked, values filed in µg/mL are converted to µM
[1] = system: Staphylococcus aureus KCTC 1621
[2] = system: Pseudomonas aeruginosa KCTC 1637
[3] = system: Escherichia coli KCTC 1682
[4] = system: Salmonella typhimurium KCTC 1926
[5] = system: Staphylococcus epidermidis KCTC 1917
[6] = system: Bacillus subtilis KCTC 3068

Row | MIC [1] | MIC [2] | MIC [3] | MIC [4] | MIC [5] | MIC [6] | SMILES
1 | 2.54 µM (≈ 5 µg/mL) | 5.08 µM (≈ 10 µg/mL) | 5.08 µM (≈ 10 µg/mL) | 5.08 µM (≈ 10 µg/mL) | 5.08 µM (≈ 10 µg/mL) | 2.54 µM (≈ 5 µg/mL) | CC[C@H](C)[C@H](N)C(=O)N[C@@H](CC(C)C)C(=O)N1CCC[C@H]1C(=O)N[C@@H](Cc1c[nH]c2ccccc12)C(=O)N[C@@H](CCCCN)C(=O)N[C@@H](Cc1c[nH]c2ccccc12)C(=O)N[C@@H](CCCCN)C(=O)N[C@@H](Cc1c[nH]c2ccccc12)C(=O)N[C@@H](Cc1c[nH]c2ccccc12)C(=O)N[C@@H](CCCCN)C(=O)N[C@@H](Cc1c[nH]c2ccccc12)C(=O)N[C@@H](CCCN=C(N)N)C(=O)N[C@@H](CCCN=C(N)N)C(N)=O [ILPWKWKWWKWRR]
2 | 4 µM (≈ 9.54 µg/mL) | 8 µM (≈ 19.1 µg/mL) | 8 µM (≈ 19.1 µg/mL) | 8 µM (≈ 19.1 µg/mL) | 2 µM (≈ 4.77 µg/mL) | 2 µM (≈ 4.77 µg/mL) | CC[C@H](C)[C@H](N)C(=O)NCC(=O)N[C@@H](CCCCN)C(=O)N[C@@H](CCCCN)C(=O)N[C@@H](Cc1ccccc1)C(=O)N[C@@H](CCCCN)C(=O)N[C@@H](CCCN=C(N)N)C(=O)N[C@H](C(=O)N[C@H](C(=O)N[C@@H](CCC(N)=O)C(=O)N[C@@H](CCCN=C(N)N)C(=O)N[C@H](C(=O)N[C@@H](CCCCN)C(=O)N[C@@H](CCCCN)C(=O)N[C@@H](Cc1ccccc1)C(=O)N[C@@H](CC(C)C)C(=O)N[C@@H](CCCN=C(N)N)C(=O)N[C@@H](CC(N)=O)C(=O)N[C@@H](CC(C)C)C(=O)O)[C@@H](C)CC)C(C)C)[C@@H](C)CC [IGKKFKRIVQRIKKFLRNL]
3 | 2 µM (≈ 5.17 µg/mL) | 4 µM (≈ 10.3 µg/mL) | 2 µM (≈ 5.17 µg/mL) | 1 µM (≈ 2.59 µg/mL) | 1 µM (≈ 2.59 µg/mL) | 2 µM (≈ 5.17 µg/mL) | CC[C@H](C)[C@H](NC(=O)[C@H](C)NC(=O)[C@H](CCCN=C(N)N)NC(=O)[C@H](Cc1ccccc1)NC(=O)[C@@H](NC(=O)[C@H](Cc1cnc[nH]1)NC(=O)[C@H](Cc1cnc[nH]1)NC(=O)[C@H](Cc1ccccc1)NC(=O)[C@@H](N)Cc1ccccc1)[C@@H](C)CC)C(=O)N[C@H](C(=O)N[C@@H](Cc1cnc[nH]1)C(=O)N[C@H](C(=O)NCC(=O)N[C@@H](CCCCN)C(=O)N[C@H](C(=O)N[C@H](C(=O)N[C@@H](Cc1cnc[nH]1)C(=O)N[C@@H](CCCN=C(N)N)C(=O)N[C@@H](CC(C)C)C(=O)N[C@H](C(=O)N[C@H](C(=O)NCC(=O)O)[C@@H](C)O)C(C)C)[C@@H](C)CC)[C@@H](C)O)C(C)C)C(C)C [FFHHIFRAIVHVGKTIHRLVTG]
4 | 8 µM (≈ 19 µg/mL) | 8 µM (≈ 19 µg/mL) | 8 µM (≈ 19 µg/mL) | 4 µM (≈ 9.48 µg/mL) | 4 µM (≈ 9.48 µg/mL) | 4 µM (≈ 9.48 µg/mL) | CC[C@H](C)[C@H](N)C(=O)NCC(=O)N[C@@H](CCCCN)C(=O)N[C@@H](CC(C)C)C(=O)N[C@@H](Cc1ccccc1)C(=O)N[C@@H](CCCCN)C(=O)N[C@@H](CCCN=C(N)N)C(=O)N[C@H](C(=O)N[C@H](C(=O)N[C@@H](CCC(N)=O)C(=O)N[C@@H](CCCN=C(N)N)C(=O)N[C@H](C(=O)N[C@@H](CCCCN)C(=O)N[C@@H](CCCCN)C(=O)N[C@@H](Cc1ccccc1)C(=O)N[C@@H](CC(C)C)C(=O)N[C@@H](CCCN=C(N)N)C(=O)N[C@@H](CC(N)=O)C(=O)N[C@@H](CC(C)C)C(=O)O)[C@@H](C)CC)C(C)C)[C@@H](C)CC [IGKLFKRIVQRIKKFLRNL]
5 | 4 µM (≈ 9.49 µg/mL) | 8 µM (≈ 19 µg/mL) | 8 µM (≈ 19 µg/mL) | 2 µM (≈ 4.75 µg/mL) | 2 µM (≈ 4.75 µg/mL) | 2 µM (≈ 4.75 µg/mL) | CC[C@H](C)[C@H](N)C(=O)NCC(=O)N[C@@H](CCCCN)C(=O)N[C@@H](CCCCN)C(=O)N[C@@H](Cc1ccccc1)C(=O)N[C@@H](CCCCN)C(=O)N[C@@H](CCCN=C(N)N)C(=O)N[C@H](C(=O)N[C@H](C(=O)N[C@@H](CCC(N)=O)C(=O)N[C@@H](CCCN=C(N)N)C(=O)N[C@H](C(=O)N[C@@H](CCCCN)C(=O)N[C@@H](CC(=O)O)C(=O)N[C@@H](Cc1ccccc1)C(=O)N[C@@H](CC(C)C)C(=O)N[C@@H](CCCN=C(N)N)C(=O)N[C@@H](CC(N)=O)C(=O)N[C@@H](CC(C)C)C(=O)O)[C@@H](C)CC)C(C)C)[C@@H](C)CC [IGKKFKRIVQRIKDFLRNL]
